Where “and” joins values, the source holds several entries; their conditions need not be identical. Identical values can stand only once.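 Cultured in 96-well plates, cells were exposed to test compound for 48 hours across five concentrations. GI50: concentration for 50% inhibition of growth. Definition used: TGI = concentration required for complete inhibition of growth.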
Tests used:
Assay in all cases: growth of human tumour cells (NCI), 48 h
[1] = tested on: HCT-116 colon
[2] = tested on: HS 578T breast
[3] = tested on: OVCAR-3 ovarian
[4] = tested on: OVCAR-4 ovarian
[5] = tested on: SK-MEL-28 melanoma
[6] = tested on: SNB-75 CNS
[7] = tested on: TK-10 renal
[8] = tested on: UACC-257 melanoma
[9] = tested on: MDA-MB-231 breast
[10] = tested on: MDA-MB-435

With `CSC1=NS(=O)(=O)c2cc(C(=O)NN(C)C(=O)c3cc4c(cc3Cl)SC(SC)=NS4(=O)=O)c(Cl)cc2S1` the TGI [1] was > 10 µM, the TGI [2] was > 10 µM and the TGI [3] was > 10 µM. The TGI [4] was > 10 µM, the TGI [5] was > 10 µM and the TGI [6] was > 10 µM. For the same compound, the TGI [7] was > 10 µM and the TGI [8] was > 10 µM.

With `COC(=O)C1=C(CS(=O)c2ccccc2[N+](=O)[O-])ON(C)C1c1ccccc1` (configuration not stated) the TGI [1] was > 100 µM, the TGI [3] was > 100 µM and the TGI [4] was > 100 µM. For the same compound, the TGI [6] was 84.5 µM, the TGI [7] was > 100 µM and the TGI [8] was > 100 µM.

For `CC1(C)C2CCC3(C2)CS(=O)(=O)N2OC231` (configuration not stated), the TGI [1] was > 100 µM, the TGI [3] was 33.2 µM and the TGI [5] was 44.7 µM. The TGI [6] was 36.5 µM, the TGI [7] was 32.9 µM and the TGI [8] was 33.1 µM.

`Cc1c(Cl)cccc1NC(=O)CC1C(=O)Nc2ccccc2S1(=O)=O` (configuration not stated) gave a TGI [1] of 30.3 µM, a TGI [3] of 31.7 µM and a TGI [4] of 67.2 µM. The TGI [5] was 38.6 µM, the TGI [6] was 32.5 µM and the TGI [7] was 56.6 µM. The TGI [8] was 77.8 µM.

With `CCOC(=O)CC1NC(=O)CS1` (configuration not stated) the TGI [1] was 61.7 µM, the TGI [3] was > 100 µM and the TGI [4] was > 100 µM. For the same compound, the TGI [5] was > 100 µM, the TGI [6] was > 100 µM and the TGI [7] was > 100 µM. The TGI [8] was > 100 µM.

Work on `CN[C@@H]1C[C@H]2O[C@@](C)([C@@H]1OC)n1c3ccccc3c3c4c(c5c6ccccc6n2c5c31)C(=O)N[C@@H]4O` yielded a TGI [1] of 2.42 µM, a TGI [9] of 0.202 µM and a GI50 [10] of 0.0478 µM. For the same compound, the TGI [10] was 0.3 µM and 1.88 µM, the TGI [3] was 0.3 µM and 0.722 µM and the GI50 [4] was 0.0286 µM. For the same compound, the TGI [5] was 2.31 µM, the GI50 [6] was 0.00322 µM and the TGI [6] was 0.0143 µM and 0.0271 µM. The GI50 [7] was 0.0195 µM and 0.0211 µM, the TGI [7] was 0.3 µM and 0.0914 µM and the GI50 [8] was 0.0848 µM. The TGI [8] was 0.3 µM and 1.9 µM.

`CN1C(=O)C(Cl)(C(Cl)(Cl)S(=O)(=O)O)C(=O)c2ccccc21` (configuration not stated) was tested, and the TGI [1] was > 100 µM, the TGI [3] was > 100 µM and the TGI [4] was > 100 µM. For the same compound, the TGI [5] was > 100 µM, the TGI [6] was > 100 µM and the TGI [7] was > 100 µM. For the same compound, the TGI [8] was > 100 µM.

With `N#CC(NNC(=O)c1ccccc1O)c1cccc(O)c1` (configuration not stated) the TGI [1] was > 100 µM, the TGI [3] was > 100 µM and the TGI [4] was > 100 µM. The TGI [5] was > 100 µM, the TGI [6] was > 100 µM and the TGI [7] was > 100 µM. For the same compound, the TGI [8] was > 100 µM.

`O=C1C2Cc3ccccc3CN2C(=O)N1CCN1CCCC1` (configuration not stated) was tested, and the TGI [3] was > 100 µM, the TGI [4] was > 100 µM and the TGI [5] was > 100 µM. The TGI [7] was > 100 µM.

`COC(=O)c1nc(N)[nH]c(=O)c1CCCCCc1c(C(=O)OC)nc(N)[nH]c1=O` was tested, and the TGI [1] was > 50 µM, the TGI [3] was > 50 µM and the TGI [4] was > 50 µM. For the same compound, the TGI [5] was > 50 µM, the TGI [6] was > 50 µM and the TGI [7] was > 50 µM. For the same compound, the TGI [8] was > 50 µM.
